According to US8440836B2, “Heterocyclic alkanol derivatives” (Bayer Intellectual Property GmbH, priority 2010, dated 2013):

Test system: not listed separately
Experiment: logP by HPLC (EEC Directive 79/831 Annex V.A8)
Format: physicochemical
Conditions: HPLC reversed-phase C18, method [a]: LC-MS, pH 2.7, 0.1% aqueous formic acid / acetonitrile, gradient 10% to 95% acetonitrile

Row | Compound | logP
1 | CC(CF)(CF)C(O)(Cc1ccccc1Cl)c1cncs1 (stereo not drawn) [Compound 46] | logP 2.78^[a]; [M + H]^+ = 332
2 | CC(C)(C)C(O)(CCc1ccc([N+](=O)[O-])cc1)c1cncs1 (stereo not drawn) [Compound 75] | logP 2.98^[a]; [M + H]^+ = 321
3 | CC(C)(/C=C/Cl)C(O)(COc1ccc(Cl)cc1)c1cncs1 (stereo not drawn) [Compound 54] | logP 3.67^[a]; [M + H]^+ = 358
4 | CC(CF)(CF)C(O)(COc1ccc(Cl)cc1)Cc1cncs1 (stereo not drawn) [Compound 67] | logP 3.04^[a]; [M + H]^+ = 362
5 | COc1cc(-c2ccccc2)ccc1OCC(O)(c1cncs1)C(C)(C)C (stereo not drawn) [Compound 49] | logP 4.02^[a]; [M + H]^+ = 384
6 | CC(C)(C)C(O)(COc1ccc(-c2ccc(Br)cc2)cc1)c1cncs1 (stereo not drawn) [Compound 52] | logP 4.71^[a]; [M + H]^+ = 432/434
7 | CC(C)(C)C(O)(CCc1ccc(Cl)cc1)c1cnco1 (stereo not drawn) [Compound 71] | logP 3.45^[a]; [M + H]^+ = 294
8 | CC(C)(C)C(O)(COc1ccc(-c2ccc(Cl)cc2)cc1)c1cncs1 (stereo not drawn) [Compound 36] | logP 4.55^[a]; [M + H]^+ = 388
9 | CC(C)(C)C(O)(COc1cccc(Oc2ccccc2)c1)c1cncs1 (stereo not drawn) [Compound 43] | logP 3.98^[a]; [M + H]^+ = 370
10 | CC1(C(O)(COc2cccc(I)c2)c2cncs2)CC1 (stereo not drawn) [Compound 26] | logP 3.41^[a]; [M + H]^+ = 402
11 | CC(C)(C)C(O)(COc1ccc(Cl)cc1)Cc1cncs1 (stereo not drawn) [Compound 64] | logP 3.49^[a]; [M + H]^+ = 326
12 | CC(C)(C)C(O)(COc1ccc(C2CCCCC2)cc1)c1cncs1 (stereo not drawn) [Compound 37] | logP 5.21^[a]; [M + H]^+ = 360
13 | CC(C)(C)c1ccc(CCC(O)(c2cncs2)C(C)(C)C)cc1 (stereo not drawn) [Compound 77] | logP 1.98^[a]; [M + H]^+ = 333
14 | CC(C)(C)c1ccc(OCC(O)(c2cncs2)C(C)(C)C)cc1 (stereo not drawn) [Compound 40] | logP 4.39^[a]; [M + H]^+ = 334
15 | CC(C)(C)C(O)(CCc1ccc(N)cc1)c1cncs1 (stereo not drawn) [Compound 76] | logP 1.16; [M + H]^+ = 291
16 | OC(Cc1ccccc1Cl)(c1cnco1)C1(Cl)CC1 (stereo not drawn) [Compound 69] | logP 2.88^[a]; [M + H]^+ = 299
17 | CC(C)(C)C(O)(COc1ccc(Oc2ccc(Cl)cc2)cc1)c1cncs1 (stereo not drawn) [Compound 29] | logP 4.50^[a]; [M + H]^+ = 404
18 | CC(C)(C)C(O)(COc1ccc(F)cc1)Cc1cncs1 (stereo not drawn) [Compound 66] | logP 3.16^[a]; [M + H]^+ = 310
19 | CC(CF)(CF)C(O)(Cc1ccccc1F)c1cncs1 (stereo not drawn) [Compound 47] | logP 2.47^[a]; [M + H]^+ = 316
20 | CC(C)(C)C(O)(COc1ccc(F)cc1)Cc1cnc(Cl)s1 (stereo not drawn) [Compound 63] | logP 4.20^[a]; [M + H]^+ = 344
21 | CC(CF)(CF)C(O)(COc1ccc(Cl)cc1)Cc1cnc(Cl)s1 (stereo not drawn) [Compound 65] | logP 3.94^[a]; [M + H]^+ = 397

Same assay, conditions: reversed-phase C18 HPLC column; HPLC reversed-phase C18, method [a]: LC-MS, pH 2.7, 0.1% aqueous formic acid / acetonitrile, gradient 10% to 95% acetonitrile

Row | chromatographic logP | Compound
22 | 2.91 | CC(C)(C)C(O)(Cc1ccc(F)cc1)c1cncs1 (stereo not drawn) [Compound 48]

Test system: Sphaerotheca fuliginea
Experiment: Sphaerotheca test (cucumber)/protective
Conditions: cucumber plants, protective spray, 500 ppm active ingredient, evaluation 7 days after inoculation

Row | Compound | efficacy
23 | CC1(C(O)(COc2ccccc2Br)c2cncs2)CC1 (stereo not drawn) [Compound 24] | 83%
24 | CC(C)C(O)(COc1ccc(I)cc1)c1cncs1 (stereo not drawn) [Compound 21] | 85%
25 | CC(C)C(O)(COc1ccc(SC(F)(F)F)cc1)c1cncs1 (stereo not drawn) [Compound 17] | 93%
26 | CC(C)(C)C(O)(CCc1ccc(Cl)cc1)c1cncs1 (stereo not drawn) [Compound 5] | 100%
27 | CC(C)C(O)(COc1ccc(Br)cc1)c1cncs1 (stereo not drawn) [Compound 22] | 96%
28 | CC(C)(C)C(O)(CCc1ccc(SC(F)(F)F)cc1)c1cncs1 (stereo not drawn) [Compound 6] | 100%
29 | CC(=O)c1ccc(-c2ccc(OCC(O)(c3cncs3)C(C)(C)C)cc2)cc1 (stereo not drawn) [Compound 31] | 100%
30 | OC(Cc1ccccc1Cl)(c1cncs1)C1(Cl)CC1 (stereo not drawn) [Compound 7] | 83%
31 | CC(C)(/C=C/Cl)C(O)(COc1ccc(Cl)cc1)c1cncs1 (stereo not drawn) [Compound 54] | 95%
32 | CC(CF)(CF)C(O)(COc1ccc(Cl)cc1)Cc1cncs1 (stereo not drawn) [Compound 67] | 95%
33 | CC(C)(C)C(O)(COc1ccc(-c2ccc(Br)cc2)cc1)c1cncs1 (stereo not drawn) [Compound 52] | 100%
34 | CC(C)(C)C(O)(COc1ccc(-c2ccc(Cl)cc2)cc1)c1cncs1 (stereo not drawn) [Compound 36] | 98%
35 | CC(C)C(O)(COc1ccc(Cl)cc1)c1cncs1 (stereo not drawn) [Compound 23] | 80%
36 | CC1(C(O)(COc2cccc(I)c2)c2cncs2)CC1 (stereo not drawn) [Compound 26] | 75%
37 | CC(C)(C)C(O)(COc1ccc(Cl)cc1)Cc1cncs1 (stereo not drawn) [Compound 64] | 100%
38 | CC(C)(C)C(O)(COc1ccc(C2CCCCC2)cc1)c1cncs1 (stereo not drawn) [Compound 37] | 100%
39 | CC(C)(C)c1ccc(OCC(O)(c2cncs2)C(C)(C)C)cc1 (stereo not drawn) [Compound 40] | 90%
40 | CC(C)(C)C(O)(CCc1ccc(Cl)cc1)Cc1cncs1 (stereo not drawn) [Compound 18] | 95%
41 | OC(COc1ccc(Cl)cc1)(c1cncs1)C1(Cl)CC1 (stereo not drawn) [Compound 16] | 78%
42 | CC(C)(C)C(O)(COc1ccc(Oc2ccc(Cl)cc2)cc1)c1cncs1 (stereo not drawn) [Compound 29] | 98%
